Data set [1] in a line: Half-life and concentrations of substance in the rat / vitreal space of the eye. In kind it is in vivo. The protocol: In a further experiment, rats are treated systemically (s.c.) and the experiment is repeated as above. The aim of this study is to verify whether systemic administration produces sufficiently high concentrations in the eye. Therefore, additionally, concentrations of substances of the instant invention are analyzed in the vitreal space of the eye. In animals treated systemically with experimental substances, there is a decrease in RGC apoptosis at least at one time point assessed and significant concentrations of the experimental substances are detected in the vitreal space of the eye.
The experiment is repeated as described above, except that substance is applied (s.c.) once 24 hrs before induction of glaucoma.
In another animal study with glaucomatous rats (procedure as described above, Morrison model) D-Trp-Aib (SEQ ID NO. 30) is applied 3 days prior to the induction of glaucoma (one single s.c injection). […] The explanation of this unexpected finding is that the pretreatment with D-Trp-Aib (SEQ ID NO. 30) leads to formation of non-toxic bulky Aβ aggregates (possibly micro non-toxic bulky Aβ aggregates) consisting of D-Trp-Aib (SEQ ID NO. 30) and physiologically Aβ that is ubiquitously prevailing at low concentrations. These non-toxic bulky Aβ aggregates function in isolating toxic Aβ after glaucoma induction even if the Aβ is released at higher concentrations.

The test system of data set [2] is CA1 region of the hippocampus (Aβ1-42 inhibition of LTP). As to the kind of experiment: Long-term potentiation (LTP) of fEPSPs in hippocampal slices after Aβ1-42 aggregated with or without D-Trp-Aib. To be noted: Aβ1-42 50 nM aggregated under serial dilution conditions without D-Trp-Aib. It is filed as cell-based, mice. The protocol: Aβ1-42 (order number 62-0-80, batch Y11042T1, American Peptide Company, Sunnyvale, Calif. 94086, U.S.A.) is suspended in 100% HFIP (Sigma Aldrich) to approximately 1 mg/ml (2 mg dissolved in 2 ml HFIP) and shaken at 37° C. for 1.5 hours in tightly sealed Eppendorf vials. This is allowed to cool to room temperature and then the solution is portioned into aliquots and the HFIP removed by evaporation using a Speedvac for approximately 30 minutes. When dry, the Aβ1-42 is stored at −20° C. The Aβ1-42 is dissolved in anhydrous DMSO (Sigma Aldrich) to a concentration of 100 fold that required in PBS (i.e. 10 mM for 100 μM) with the aid of an ultrasonic water bath with/without D-Trp-Aib (SEQ ID NO. 30) (i.e. for a 10:1 ratio with D-Trp-Aib (SEQ ID NO. 30) 100 mM for 10 mM Aβ1-42). This solution is then immediately diluted in PBS to a final concentration of 100 μM Aβ in 1% DMSO. These solutions are allowed to aggregate at room temperature for various times (e.g. 1 hour, 1 day, 1 week) before being used. […]
Extracellular recordings of field excitatory postsynaptic potentials (fEPSPs) are obtained from the dendritic region of the CA1 region of the hippocampus using glass micropipettes (1-2 MW) filled with superfusion solution. […] Amplified fEPSPs and NMDA-EPSCs are filtered (3 kHz), digitized (15 kHz) and measured and plotted online, using the “LTP-program”-software. […]

Non-standard residues stand in square brackets, D forms with d. Residues, ends and D or L forms follow the SMILES beside them. Aib = CC(C)(N)C(=O)O

This is an account of results in US9717772B2, “Interval therapy for the treatment of loss of eyesight in humans with glaucoma and other degenerative eye diseases” (Ramot at Tel-Aviv University Ltd., priority 2012, dated 2017).

As for `CC(C)(NC(=O)[C@H](N)Cc1c[nH]c2ccccc12)C(=O)O` [D-Trp-Aib] (H-[dW]-[Aib]-OH; N-terminus and C-terminus assumed), the “detectability in the animal at the time point of glaucoma induction” value in data set [1] (3 days after one single s.c injection) is recorded as “no longer detectable”. Besides, the half-life in data set [1] (in vivo, in the rat) is 1 to 2 h. Regarding “Aβ1-42: lyophilized β-amyloid Aβ1-42 peptide (Bachem / American Peptide Company) used as toxic stimulus”, the “inhibition of LTP” value in data set [2] is “strong inhibition of LTP”.

Broadly, the half-life is how long it takes for the measured level to halve. Read a high half-life as slow decline.
